# Source: patent publication US20130210786A1, “TREATMENT OF L-DOPA, DOPAMINE AGONIST AND/OR DOPAMINE ENHANCER INDUCED DISORDERS” (priority 2010, published 2013)
# Columns and labels:
# MPTP-lesioned macaques [1] = experiment: L-DOPA induced dyskinesia (LID) in MPTP-lesioned macaques, monkey dyskinesia rating scale; format: in vivo, Macaca fascicularis; conditions: for % reduction in LID compared to corresponding vehicle group / Number of LID events in each stated time period (hours) post challenge 0-1 / Number of LID events in each stated time period (hours) post challenge 1-2 / Number of LID events in each stated time period (hours) post challenge 2-3 / Number of LID events in each stated time period (hours) post challenge 3-4 / Number of LID events in each stated time period (hours) post challenge 4-5 / Number of LID events in each stated time period (hours) post challenge 5-6 / Number of LID events post challenge Total: smilagenin 20 mg/kg/day p.o. 18 weeks, then 10 week washout; for Number of LID events in each stated time period (hours) post challenge 0-1: 0-1 h; for Number of LID events in each stated time period (hours) post challenge 1-2: 1-2 h; for Number of LID events in each stated time period (hours) post challenge 2-3: 2-3 h; for Number of LID events in each stated time period (hours) post challenge 3-4: 3-4 h; for Number of LID events in each stated time period (hours) post challenge 4-5: 4-5 h; for Number of LID events in each stated time period (hours) post challenge 5-6: 5-6 h; for Number of LID events post challenge Total: total 0-6 h
# Experimental: Ten female cynomolgus monkeys (macaques) (Macaca fascicularis, 3.0-4.5 kg, 4-6 years old) were acclimatised to the experimental setting and procedures for 3 months and baseline behaviour was assessed in all animals. The macaques received MPTP (0.2 mg/kg/day, s.c.) until moderate-marked, stable, parkinsonian symptoms developed.
# Following stabilisation of parkinsonian disability, the macaques were administered L-DOPA (Madopar, 20 mg/kg b.i.d., p.o.) for 19 weeks before being administered L-DOPA+vehicle (hydroxypropylmethylcellulose, HPMC, 0.5% w/v containing Tween 80, 0.2% v/v, group 1, n=5) or L-DOPA+smilagenin (20 mg/kg/day, p.o., group 2, n=5) for a further 18 weeks. Smilagenin was then washed out for 10 weeks and all the macaques received only L-DOPA twice daily over this 10 week period.
# Following the 10 week washout, the macaques were challenged with L-DOPA (6, 12, 20, 30 or 40 mg/kg, p.o.) or vehicle and the level of dyskinesia over the subsequent 6 h period was assessed by a neurologist blinded to treatment using a monkey dyskinesia rating scale. […] Each macaque received a challenge once every 3 days and received every challenge (vehicle and L-DOPA, 6, 12, 20, 30 or 40 mg/kg) in a randomised order over the course of the experiment. On the days between challenges, the macaques received L-DOPA (20 mg/kg, b.i.d., p.o.) as normal.
# The MPTP-lesioned and L-DOPA treated macaques used in this experiment provide an accepted model for L-DOPA-induced dyskinesia.
# MPTP-lesioned macaques [2] = experiment: On-time (time without bradykinesia) in MPTP-lesioned macaques after L-DOPA challenge; format: in vivo, Macaca fascicularis; conditions: for Minutes spent in on time (mean ± s.e. mean): 6 h observation; for Minutes spent in on time (mean ± s.e. mean) / Percent on-time normalised to 0 mg/kg L-DOPA (mean ± s.e. mean): smilagenin 20 mg/kg/day p.o. 18 weeks, then 10 week washout
# Experimental: Analysis was performed using a two-way ANOVA with group and L-DOPA dose as factors.
# [3] = Total across all L-DOPA challenge doses (0-40 mg/kg)
smiles,measurement,setting,value
"C[C@@H]1CC[C@@]2(OC1)O[C@H]1C[C@H]3[C@@H]4CC[C@@H]5C[C@@H](O)CC[C@]5(C)[C@H]4CC[C@]3(C)[C@H]1[C@@H]2C [Smilagenin, smilagenin]",% reduction in LID compared to corresponding vehicle group,MPTP-lesioned macaques [1]; Across all doses of L-DOPA,53%
same,Number of LID events in each stated time period (hours) post challenge 0-1,MPTP-lesioned macaques [1]; L-DOPA challenge 0 mg/kg,0
same,Number of LID events in each stated time period (hours) post challenge 1-2,MPTP-lesioned macaques [1]; L-DOPA challenge 0 mg/kg,0
same,Number of LID events in each stated time period (hours) post challenge 2-3,MPTP-lesioned macaques [1]; L-DOPA challenge 0 mg/kg,0
same,Number of LID events in each stated time period (hours) post challenge 3-4,MPTP-lesioned macaques [1]; L-DOPA challenge 0 mg/kg,0
same,Number of LID events in each stated time period (hours) post challenge 4-5,MPTP-lesioned macaques [1]; L-DOPA challenge 0 mg/kg,0
same,Number of LID events in each stated time period (hours) post challenge 5-6,MPTP-lesioned macaques [1]; L-DOPA challenge 0 mg/kg,0
same,% reduction in LID compared to corresponding vehicle group,MPTP-lesioned macaques [1]; L-DOPA challenge 0 mg/kg,0%
same,Number of LID events post challenge Total,MPTP-lesioned macaques [1]; L-DOPA challenge 0 mg/kg,0
same,Number of LID events in each stated time period (hours) post challenge 0-1,MPTP-lesioned macaques [1]; L-DOPA challenge 6 mg/kg p.o.,0
same,Number of LID events in each stated time period (hours) post challenge 1-2,MPTP-lesioned macaques [1]; L-DOPA challenge 6 mg/kg p.o.,0
same,Number of LID events in each stated time period (hours) post challenge 2-3,MPTP-lesioned macaques [1]; L-DOPA challenge 6 mg/kg p.o.,0
same,Number of LID events in each stated time period (hours) post challenge 3-4,MPTP-lesioned macaques [1]; L-DOPA challenge 6 mg/kg p.o.,0
same,Number of LID events in each stated time period (hours) post challenge 4-5,MPTP-lesioned macaques [1]; L-DOPA challenge 6 mg/kg p.o.,0
same,Number of LID events in each stated time period (hours) post challenge 5-6,MPTP-lesioned macaques [1]; L-DOPA challenge 6 mg/kg p.o.,0
same,% reduction in LID compared to corresponding vehicle group,MPTP-lesioned macaques [1]; L-DOPA challenge 6 mg/kg p.o.,0%
same,Number of LID events post challenge Total,MPTP-lesioned macaques [1]; L-DOPA challenge 6 mg/kg p.o.,0
same,Number of LID events in each stated time period (hours) post challenge 0-1,MPTP-lesioned macaques [1]; L-DOPA challenge 12 mg/kg p.o.,0
same,Number of LID events in each stated time period (hours) post challenge 1-2,MPTP-lesioned macaques [1]; L-DOPA challenge 12 mg/kg p.o.,0
same,Number of LID events in each stated time period (hours) post challenge 2-3,MPTP-lesioned macaques [1]; L-DOPA challenge 12 mg/kg p.o.,0
same,Number of LID events in each stated time period (hours) post challenge 3-4,MPTP-lesioned macaques [1]; L-DOPA challenge 12 mg/kg p.o.,0
same,Number of LID events in each stated time period (hours) post challenge 4-5,MPTP-lesioned macaques [1]; L-DOPA challenge 12 mg/kg p.o.,0
same,Number of LID events in each stated time period (hours) post challenge 5-6,MPTP-lesioned macaques [1]; L-DOPA challenge 12 mg/kg p.o.,0
same,% reduction in LID compared to corresponding vehicle group,MPTP-lesioned macaques [1]; L-DOPA challenge 12 mg/kg p.o.,100%
same,Number of LID events post challenge Total,MPTP-lesioned macaques [1]; L-DOPA challenge 12 mg/kg p.o.,0
same,Number of LID events in each stated time period (hours) post challenge 0-1,MPTP-lesioned macaques [1]; L-DOPA challenge 20 mg/kg p.o.,8
same,Number of LID events in each stated time period (hours) post challenge 1-2,MPTP-lesioned macaques [1]; L-DOPA challenge 20 mg/kg p.o.,29
same,Number of LID events in each stated time period (hours) post challenge 2-3,MPTP-lesioned macaques [1]; L-DOPA challenge 20 mg/kg p.o.,6
same,Number of LID events in each stated time period (hours) post challenge 3-4,MPTP-lesioned macaques [1]; L-DOPA challenge 20 mg/kg p.o.,0
same,Number of LID events in each stated time period (hours) post challenge 4-5,MPTP-lesioned macaques [1]; L-DOPA challenge 20 mg/kg p.o.,0
same,Number of LID events in each stated time period (hours) post challenge 5-6,MPTP-lesioned macaques [1]; L-DOPA challenge 20 mg/kg p.o.,0
same,% reduction in LID compared to corresponding vehicle group,MPTP-lesioned macaques [1]; L-DOPA challenge 20 mg/kg p.o.,52%
same,Number of LID events post challenge Total,MPTP-lesioned macaques [1]; L-DOPA challenge 20 mg/kg p.o.,43
same,Number of LID events in each stated time period (hours) post challenge 0-1,MPTP-lesioned macaques [1]; L-DOPA challenge 30 mg/kg p.o.,3
same,Number of LID events in each stated time period (hours) post challenge 1-2,MPTP-lesioned macaques [1]; L-DOPA challenge 30 mg/kg p.o.,29
same,Number of LID events in each stated time period (hours) post challenge 2-3,MPTP-lesioned macaques [1]; L-DOPA challenge 30 mg/kg p.o.,11
same,Number of LID events in each stated time period (hours) post challenge 3-4,MPTP-lesioned macaques [1]; L-DOPA challenge 30 mg/kg p.o.,0
same,Number of LID events in each stated time period (hours) post challenge 4-5,MPTP-lesioned macaques [1]; L-DOPA challenge 30 mg/kg p.o.,0
same,Number of LID events in each stated time period (hours) post challenge 5-6,MPTP-lesioned macaques [1]; L-DOPA challenge 30 mg/kg p.o.,0
same,% reduction in LID compared to corresponding vehicle group,MPTP-lesioned macaques [1]; L-DOPA challenge 30 mg/kg p.o.,76%
same,Number of LID events post challenge Total,MPTP-lesioned macaques [1]; L-DOPA challenge 30 mg/kg p.o.,43
same,Number of LID events in each stated time period (hours) post challenge 0-1,MPTP-lesioned macaques [1]; L-DOPA challenge 40 mg/kg p.o.,8
same,Number of LID events in each stated time period (hours) post challenge 1-2,MPTP-lesioned macaques [1]; L-DOPA challenge 40 mg/kg p.o.,56
same,Number of LID events in each stated time period (hours) post challenge 2-3,MPTP-lesioned macaques [1]; L-DOPA challenge 40 mg/kg p.o.,48
same,Number of LID events in each stated time period (hours) post challenge 3-4,MPTP-lesioned macaques [1]; L-DOPA challenge 40 mg/kg p.o.,14
same,Number of LID events in each stated time period (hours) post challenge 4-5,MPTP-lesioned macaques [1]; L-DOPA challenge 40 mg/kg p.o.,0
same,Number of LID events in each stated time period (hours) post challenge 5-6,MPTP-lesioned macaques [1]; L-DOPA challenge 40 mg/kg p.o.,0
same,% reduction in LID compared to corresponding vehicle group,MPTP-lesioned macaques [1]; L-DOPA challenge 40 mg/kg p.o.,27%
same,Number of LID events post challenge Total,MPTP-lesioned macaques [1]; L-DOPA challenge 40 mg/kg p.o.,126
same,Number of LID events in each stated time period (hours) post challenge 0-1,MPTP-lesioned macaques [1]; [3],19
same,Number of LID events in each stated time period (hours) post challenge 1-2,MPTP-lesioned macaques [1]; [3],114
same,Number of LID events in each stated time period (hours) post challenge 2-3,MPTP-lesioned macaques [1]; [3],65
same,Number of LID events in each stated time period (hours) post challenge 3-4,MPTP-lesioned macaques [1]; [3],14
same,Number of LID events in each stated time period (hours) post challenge 4-5,MPTP-lesioned macaques [1]; [3],0
same,Number of LID events in each stated time period (hours) post challenge 5-6,MPTP-lesioned macaques [1]; [3],0
same,Number of LID events post challenge Total,MPTP-lesioned macaques [1]; [3],212
same,Dyskinesia following challenge with L-DOPA,"MPTP-lesioned macaques [1]; group 2 (L-DOPA+smilagenin), challenge with L-DOPA 6 or 12 mg/kg, 6 h",no dyskinesia was observed
same,"Dyskinesia following challenge with L-DOPA, compared to group 1 (vehicle)","MPTP-lesioned macaques [1]; group 2 (L-DOPA+smilagenin), challenge with L-DOPA at 20, 30 or 40 mg/kg",less dyskinesia compared to group 1
same,Minutes spent in on time (mean ± s.e. mean),MPTP-lesioned macaques [2]; L-DOPA dose 0 mg/kg,114 ± 43 min
same,Percent on-time normalised to 0 mg/kg L-DOPA (mean ± s.e. mean),MPTP-lesioned macaques [2]; L-DOPA dose 0 mg/kg,100%
same,Minutes spent in on time (mean ± s.e. mean),MPTP-lesioned macaques [2]; L-DOPA dose 6 mg/kg,134 ± 43 min
same,Percent on-time normalised to 0 mg/kg L-DOPA (mean ± s.e. mean),MPTP-lesioned macaques [2]; L-DOPA dose 6 mg/kg,118 ± 32%
same,Minutes spent in on time (mean ± s.e. mean),MPTP-lesioned macaques [2]; L-DOPA dose 12 mg/kg,126 ± 35 min
same,Percent on-time normalised to 0 mg/kg L-DOPA (mean ± s.e. mean),MPTP-lesioned macaques [2]; L-DOPA dose 12 mg/kg,111 ± 28%
same,Minutes spent in on time (mean ± s.e. mean),MPTP-lesioned macaques [2]; L-DOPA dose 20 mg/kg,178 ± 29 min
same,Percent on-time normalised to 0 mg/kg L-DOPA (mean ± s.e. mean),MPTP-lesioned macaques [2]; L-DOPA dose 20 mg/kg,156 ± 16%
same,Minutes spent in on time (mean ± s.e. mean),MPTP-lesioned macaques [2]; L-DOPA dose 30 mg/kg,224 ± 13 min
same,Percent on-time normalised to 0 mg/kg L-DOPA (mean ± s.e. mean),MPTP-lesioned macaques [2]; L-DOPA dose 30 mg/kg,196 ± 6%
same,Minutes spent in on time (mean ± s.e. mean),MPTP-lesioned macaques [2]; L-DOPA dose 40 mg/kg,230 ± 24 min
same,Percent on-time normalised to 0 mg/kg L-DOPA (mean ± s.e. mean),MPTP-lesioned macaques [2]; L-DOPA dose 40 mg/kg,202 ± 10%
same,"Total on-time, smilagenin group versus vehicle group","MPTP-lesioned macaques [2]; two-way ANOVA with group and L-DOPA dose as factors, p>0.05",not significantly different
